Reference: patent publication US5310938A, “Substituted arylpyrrole compounds” (American Cyanamid Company, priority 1993, dated 1994)

System: Caenorhabditis elegans
Experiment: Nematicidal activity against C. elegans (motility rating)
Type: in vivo, C. elegans (Bristol strain)
Parameters: key: 9: complete kill; 8: no motility; 7: markedly reduced motility in approximately 95% of worms; 6: reduced motility; 5: slightly reduced motility; 0: normal motility, same as controls
Conditions: read at 4 and 24 hours post-immersion
Method: Cultures of C. elegans (Bristol strain from J. Lewis) are maintained on E. coli lawns on NG Agar Plates at 20° C. New cultures are established weekly.
Nematodes for testing are washed from 4-5 day old cultures using Fresh Ascaris Ringers Solution (FARS). The worms are further washed with FARS,-containing gentamycin, to reduce bacterial contamination and centrifuged to separate worms from wash solution. This procedure is repeated three times. The washed worms are then added to C. brigassae Maintenance Medium (CbMM), from GIBCOa to which is added gentamycin (600 units/ml) and mycostatin (0.5 mg/ml).
Compounds are dissolved in acetone and made up to volume with equal parts of water. The final test concentration of each compound in the mixture is 150 ppm. The test material is micropipetted (25 ul) into a single well of a 96-well sterile tissue culture plate (COSTAR)^b and the solvent allowed to evaporate. These "treated" plates are used immediately or stored in a refrigerator without apparent adverse effects on the compounds.
A freshly prepared volume ([…]) of C. elegans in CbMM is micropipetted into each treated well and several control wells per plate. Culture plates are incubated at 20° C.
Observations for efficacy are made under a dissecting microscope at 4 and 24 hours post-immersion. Immediately prior to reading the plate, it is gently tapped to stimulate the movement of the worms. Activity is judged based on the drug effects on motility of the adults and larvae. […] Other factors indicating activity are easily noted such as death, rigor mortis, contraction, coiling, paralysis, abnormal twitching, reduced worm population in 48 hours and other deviation from normal behavior.
Day 0 Inoculate E. Coli-NG Agar Dish With 30-40
Day 4 Harvest New C. Elegans Population
Add C. Elegans (25-100 µL) To "Medicated"
Observe for Activity at 4 hours Post-
Day 5 Observe For Activity

Row | Molecule | Rating Against C. Elegans 150 ppm
1 | 4,5-Dichloro-1-(hydromethyl)-2-(α,α,α-trifluoro-P-tolyl) | 9
2 | N#Cc1[nH]ccc1-c1ccc(Cl)cc1 [3-(P-chlorophenyl)pyrrole-2-carbonitrile, 3-(p-chlorophenyl)-pyrrole-2-carbonitrile] | 9
3 | N#Cc1c(-c2ccc(Cl)cc2)[nH]c(C(F)(F)F)c1C(F)(F)F [2-(P-chlorophenyl)-4,5-bis(trifluoromethyl)pyrrole-3-carbonitrile] | 9
4 | N#Cc1[nH]c(-c2ccc(Cl)c(Cl)c2)c([N+](=O)[O-])c1Br [3-Bromo-5-(3,4-dichlorophenyl)-4-nitropyrrole-2-carbonitrile] | 9
5 | N#Cc1c[nH]c(-c2ccc(C(F)(F)F)cc2)c1 [5-(α,α,α-trifluoro-tolyl)-pyrrole-3-carbonitrile] | 9
6 | O=[N+]([O-])c1c[nH]cc1-c1ccc(Cl)cc1 [3-(P-chlorophenyl)-4-nitro-pyrrole] | 9
7 | N#Cc1c(-c2ccc([N+](=O)[O-])cc2)[nH]c(Cl)c1Cl [4,5-Dichloro-2-(P-nitrophenyl)-pyrrole-3-carbonitrile] | 9
8 | N#Cc1c(Br)[nH]c(C(F)(F)F)c1-c1ccccc1 [2-Bromo-4-phenyl-5-(trifluoromethyl)pyrrole-3-carbonitrile] | 9
9 | N#Cc1c(Br)c(Br)n(Cc2ccccc2)c1-c1ccc(C(F)(F)F)cc1 [1-Benzyl-4,5-dibromo-2-(α,α,α-trifluoro-p-tolyl)pyrrole-3-carbonitrile] | 9
10 | N#Cc1[nH]c(Br)c(-c2ccc(Cl)cc2)c1Br [3,5-Dibromo-4-(p-chlorophenyl)pyrrole-2-carbonitrile] | 9
11 | N#Cc1ccc(-c2[nH]c(Br)c(Br)c2C#N)cc1 [4,5-Dibromo-2-(P-cyanophenyl)-pyrrole-3-carbonitrile] | 9
12 | N#Cc1c(-c2ccc(Cl)c(Cl)c2)[nH]c([N+](=O)[O-])c1Br [4-Bromo-2-(3,4-dichlorophenyl-5-nitropyrrole-3-carbonitrile] | 9
13 | O=[N+]([O-])c1c(-c2ccc(C(F)(F)F)cc2)[nH]c(Cl)c1Cl [2,3-Dichloro-4-nitro-5-(α,α,α-Trifluoro-p-tolylpyrrole] | 9
14 | N#CCn1c(-c2ccc(Cl)cc2)c(C#N)c(Br)c1C(F)(F)F [3-Bromo-5-(P-chlorophenyl)-4-cyano-2-(trifluoromethyl)-pyrrole-1-acetonitrile] | 9
15 | CCOCn1c(-c2ccc(Cl)cc2Cl)c(C#N)c(Br)c1C(F)(F)F [4-Bromo-2-(2,4-Dichlorophenyl)-1-(ethoxymethyl)-5-(trifluoromethyl)pyrrole-3-carbonitrile] | 9
16 | N#Cc1[nH]c(-c2ccc(Cl)c(Cl)c2)c(Br)c1Br [3,4-dibromo-5-(3,4-dichlorophenyl)pyrrole-2-carbonitrile] | 9
17 | N#Cc1c(-c2cccc([N+](=O)[O-])c2)[nH]c(C(F)(F)F)c1Br [4-Bromo-2-(m-nitrophenyl)-5-(trifluoromethyl)pyrrole-3-carbonitrile] | 9
18 | N#Cc1c(Br)[nH]c(-c2ccc(C(F)(F)F)cc2)c1Br [2,4-Dibromo-5-(α,α,α-trifluoro-P-tolyl)pyrrole-3-carbonitrile] | 9
19 | N#Cc1[nH]c(Br)c(C#N)c1-c1ccc(Cl)cc1 [5-Bromo-3-(P-chlorophenyl)-pyrrole-2,4-dicarbonitrile] | 9
20 | N#Cc1cc(C#N)c(-c2ccc(Cl)c(Cl)c2)[nH]1 [5-(3,4-Dichlorophenyl)-pyrrole-3-dicarbonitrile] | 9
21 | N#Cc1ccc(-c2[nH]c(Cl)c(Cl)c2C#N)cc1 [4,5-Dichloro-2-(P-cyanophenyl)-pyrrole-3-carbonitrile] | 9
22 | N#Cc1c(Br)[nH]c(C(F)(F)F)c1-c1ccc(Cl)cc1 [2-Bromo-4-(P-chlorophenyl)-5-(trifluoromethyl)pyrrole-3-carbonitrile] | 9
23 | COCCn1c(Cl)c(Cl)c(C#N)c1-c1ccc(C(F)(F)F)cc1 [4,5-Dichloro-1-(methoxyethyl)-2-(α,α,α-trifluoro-P-tolyl)pyrrole-3-carbonitrile] | 9
24 | N#Cc1c(-c2ccccc2Cl)[nH]c(Br)c1Br [4,5-Dibromo-2-(0-chlorophenyl)-pyrrole-3-carbonitrile] | 9

Row | Molecule | Rating Against C. Elegans 150 ppm
25 | FC(F)(F)c1[nH]ccc1-c1ccc(Cl)cc1 [3-(P-chlorophenyl)-2-(trifluoromethyl)pyrrole] | 9
26 | CN(C)CCn1c(Cl)c(Cl)c(C#N)c1-c1ccc(Cl)c(Cl)c1 [4,5-Dichloro-2-(3,4-dichlorophenyl)-1-[2-(dimethylamino)ethyl]pyrrole-3-carbonitrile] | 9
27 | N#Cc1cc([N+](=O)[O-])c(-c2ccc(Cl)c(Cl)c2)[nH]1 [5(3,4-Dichlorophenyl)-4-nitropyrrole-2-carbonitrile] | 9
28 | N#Cc1c(Br)c(C#N)n(Cc2ccccc2)c1-c1ccc(Cl)cc1 [1-Benzyl-3-bromo-5-(P-chlorophenyl)pyrrole-2,4-dicarbonitrile] | 9
29 | O=[N+]([O-])c1c(Cl)[nH]c(Cl)c1-c1ccc(Cl)c(Cl)c1 [2,5-Dichloro-3-(3,4-dichlorophenyl)-4-nitropyrrole] | 9
30 | O=[N+]([O-])c1c(-c2ccc(Cl)c(Cl)c2)[nH]c(Cl)c1Cl [2,3-Dichloro-5-(3,4-dichlorophenyl)-4-nitropyrrole] | 9
31 | N#Cc1c(-c2ccc(Cl)cc2Cl)[nH]c(C(F)(F)F)c1Br [4-Bromo-2-(2,4-dichlorophenyl)-5-(trifluoromethyl)pyrrole-3-carbonitrile] | 9
32 | N#Cc1c[nH]c(C(F)(F)F)c1-c1ccccc1 [4-Phenyl-5-(trifluoromethyl)pyrrole-3-carbonitrile] | 9
33 | N#Cc1c(-c2ccc(Cl)cc2)[nH]c(C(F)(F)F)c1Br [4-Bromo-2-(p-chlorophenyl)-5-(trifluoromethyl)pyrrole-3-carbonitrile] | 9
34 | C=CCn1c(Cl)c(Cl)c(C#N)c1-c1ccc(Cl)c(Cl)c1 [1-Alkyl-4,5-dichloro-2-(3,4-dichlorophenyl)pyrrole-3-carbonitrile] | 9
35 | N#Cc1cc([N+](=O)[O-])[nH]c1-c1ccc(Cl)cc1 [2-(p-chlorophenyl)-5-nitropyrrole-3-carbonitrile] | 9
36 | N#Cc1c(-c2ccc(C(F)(F)F)cc2)[nH]c(Br)c1Br [4,5-Dibromo-2-(α,α,α-trifluoro-p-tolyl)pyrrole-3-carbonitrile] | 9
37 | N#Cc1c(-c2ccc(Cl)c(Cl)c2)[nH]c(C(F)(F)F)c1Br [4-Bromo-2-(3,4-dichlorophenyl)-5-(trifluoromethyl)pyrrole-3-carbonitrile] | 9
38 | O=[N+]([O-])c1c[nH]cc1-c1ccccc1 [3-Nitro-4-phenylpyrrole] | 9
39 | CS(=O)(=O)c1ccc(-c2[nH]c(Br)c(Br)c2C#N)cc1 [4,5-Dibromo-2-[P-(methylsulfonyl)phenyl]-pyrrole-3-carbonitrile] | 9
40 | O=[N+]([O-])c1c(-c2ccc(Br)cc2)[nH]c(Cl)c1Cl [2-(P-bromophenyl)-4,5-dichloro-3-nitropyrrole] | 9
41 | O=[N+]([O-])c1cc([N+](=O)[O-])c(-c2ccc(Br)cc2)[nH]1 [2-(P-bromophenyl)-3,5-dimitropyrrole] | 9
42 | N#Cc1[nH]c(-c2ccc(OC(F)(F)F)cc2)c(C#N)c1Br [3-Bromo-5-[P-(trifluoromethoxy)phenyl]-pyrrole-2-4-dicarbonitrile] | 9
43 | N#Cc1c(-c2ccc([N+](=O)[O-])cc2)[nH]c(Br)c1Br [4,5-Dibromo-2-(P-nitrophenyl)-pyrrole-3-carbonitrile] | 9
44 | CSCCn1c(Cl)c(Cl)c(C#N)c1-c1ccc(Cl)c(Cl)c1 [4,5-Dichloro-2-(3,4-dichlorophenyl)-1[2-(methylthio)ethyl]pyrrole-3-carbonitrile] | 9
45 | N#Cc1c(-c2ccc(C(F)(F)F)cc2)[nH]c([N+](=O)[O-])c1Br [4-Bromo-5-nitro-2-(α,α,α-trifluoro-P-tolyl)pyrrole-3-carbonitrile] | 9
46 | N#Cc1c(-c2ccc(C(F)(F)F)cc2)[nH]c(Cl)c1Cl [4,5-Dichloro-2-(α,α,α-trifluoro-P-tolylpyrrole-3-carbonitrile] | 9
47 | CCOCn1c(-c2ccc(C(F)(F)F)cc2)c(C#N)c(Br)c1C(F)(F)F [4-Bromo-1-(ethoxymethyl)-5-(trifluoromethyl)-2-(α,α,α-trifluoro-P-tolyl)-pyrrole-3-carbonitrile] | 9
